# Laboratory results from patent EP4563149A1, “LURBINECTEDIN, ECUBECTEDIN AND A RELATED COMPOUND FOR USE IN THE TREATMENT OF SKIN CANCERS” (Pharma Mar, S.A., priority 2023, dated 2025).
# pIC50: −log10 of the molar value. Like-named read-outs stand apart in the source and are kept apart here.
# What was measured:
# all melanoma cells = assay: Cell viability assay (PrestoBlue), summary over all melanoma cells; format: cell-based; conditions: Homo sapiens, read-out: IC50 values
# melanoma cells = assay: Cell proliferation by CellTrace Violet flow cytometry; format: cell-based, human; conditions: IC50 concentrations, compared to DMSO
# Protocol: After 48h of incubation, cells were rinsed and incubated with AnnexinV-APC (BD Biosciences). Cell proliferation and apoptosis were detected on a BD LSRFortessaTM Flow Cytometer. Data were analyzed with FlowJo software. To define slow proliferating or apoptotic cells: it was considered that slow proliferating cells represented the 30% of cells with the highest concentration of CellTrace Violet signal in the DMSO control. […] For apoptotic cells, it was considered the 20% of cells with the highest signal of AnnexinV-APC in the DMSO control.
# [1] = tested on: RPB1 (RNA pol II elongation subunit); assay: Immunoblotting of RPB1 in 501mel; format: cell-based, human; conditions: 24h at 5×IC50
# Protocol: Cells were washed once with cold PBS, rinsed with a cell scraper, pelleted and resuspended in LSDB 0.5M buffer (0.5M KCI, 50mM Tris HCl pH 7.9, 20% Glycerol, 1% NP40, 1mM DTT, PIC). Afterwards cells were fully disrupted with 3 cycles of heat shock in liquid nitrogen and 37°C water bath and centrifugated 15min at 14,000rpm to pellet cell debris. Ten micrograms of extract were loaded on SDS-PAGE before transfer to nitro-cellulose membranes and immunoblotting.
# [2] = tested on: 501mel, 501mel^VemuR and SKMEL28-derived xenografts; conditions: 24h after single IV dose of 1.2 mg/kg
# Excerpt: (§1) To investigate the effects of the aforementioned tested drugs in living organisms, it was decided to examine the impact of PM14 and Compound IA on melanoma cell-derived xenograft (CDXs) mouse models. Human 501mel, 501mel^VemuR or SKMEL28 melanoma cells were subcutaneously implanted into the right flank of NSG mice.
# [3] = tested on: 501mel, 501mel^VemuR or SKMEL28 melanoma cells; conditions: weekly IV 1.2mg/kg; for antitumor activity (tumor volumes) versus placebo-treated group: N=8/group; for overall survival: three CDX models
# Protocol: as §1
# Tumor volumes were monitored following weekly IV treatments of PM14 or Comp IA at a concentration of 1.2mg/kg. Treatments commenced (Day 0) when the tumors reached 150 mm^3 in female NSG mice aged 4 to 6 weeks (N=8/group).
# [4] = tested on: 501mel melanoma xenografts; conditions: 1.2 mg/kg intravenous
# Protocol: (§2) Female athymic nu/nu mice (Harlan Laboratories Models, S.L. Barcelona, Spain or Envigo, Spain) were utilized for all experiments. Animal were housed in individually ventilated cages Sealsafe® Plus, Techmplast S.P.A.), up to ten per cage on a 12-hour light-dark cycle at 21-23 °C and 40-60 % humidity. Mice were allowed free access to irradiated standard rodent diet (Tecklad 2914C) and sterilized water. Animals were acclimated for at least 5 days prior to tumor implantation with a tumor cell suspension.
# (§3) The cell line used are: • 501mel • IGR-37 • SK-Mel-28 • WM-266-4 • LOX-IMVI • 501mel^Vemur
# (§4) In xenograft studies with cell lines: • Tumour volume was calculated using the equation […], where a: length (longest diameter) and b: width (shortest diameter) were measured in mm by using digital caliper (Fowler Sylvac, S235PAT). Tumour dimensions and body weights were recorded 2-3 times per week starting from the first day of treatment. • When tumors reached ca. 150-250 mm^3, tumour bearing animals (N = 8-10/group) were randomly allocated into the treatment groups, based on body weight and tumour measurements by using NewLab Oncology Software (version 2.25.06.00). • Comparison between median tumour volume of treated and placebo groups was used for evaluation of the antitumoural efficacy. • Animals were euthanized when their tumours reached ca. 1,500 mm^3 and/or severe necrosis was seen.
# (§5) Treatments producing >20 % lethality and/or 20% net body weight loss were considered toxic.
# (§6) In these experiments, PM14 and Compound IA, as well as placebo, were intravenously administered once per week for 3 consecutive weeks, on days 0, 7 and 14, whenever it was possible.
# Table 4. Tumour volume evaluation in 501mel melanoma xenografts with PM14 and Compound IA and placebo.
# [5] = tested on: IGR-37 melanoma xenografts; conditions: 1.2 mg/kg intravenous
# Protocol: as §2, §3, §4, §5, §6
# Table 5. Tumour volume evaluation in IGR-37 melanoma xenografts with PM14 and Compound IA and placebo.
# [6] = tested on: LOX-IMVI melanoma xenografts; conditions: 1.2 mg/kg intravenous
# Protocol: as §2, §3, §4, §5, §6
# Tumour volume evaluation in LOX-IMVI melanoma xenografts with PM14 and Compound IA and placebo.
# MM011 = assay: Cell viability assay (PrestoBlue), 72h; conditions: Homo sapiens
# Protocol: (§7) Cells were grown at 37°C in 5% CO2 (10% for Hermes 3A) and were regularly checked for mycoplasma contamination. […] Melanoma cell lines 501mel and SKmel28 were grown in RPMI w/o HEPES (Gibco, Invitrogen) supplemented with 10% FCS and gentamycin. Vemurafenib-resistant cells (501melVemuR and MM074VemuR) were additionally supplemented with 1.5 µM of vemurafenib. Melanoma IGR cell lines (IGR37 and IGR39) were grown in RPMI w/o HEPES (Gibco, Invitrogen) supplemented with 15% FCS and gentamycin.
# (§8) To determine the IC50 (half maximal inhibitory concentration) of these cells to various inhibitors, cell viability assays were performed.
# (§9) After 72h of treatment with different concentrations of the compounds, cells were treated with PrestoBlue reagent according to the manufacturer's instructions. The absorbance per well was measured with a Cellinsight CX5 microplate reader. Data were analyzed using Prism9 statistical software.
# MM074 = assay: Cell viability assay (PrestoBlue), 72h; conditions: Homo sapiens
# Protocol: as §7, §8, §9
# MM117 = assay: Cell viability assay (PrestoBlue), 72h; conditions: Homo sapiens
# Protocol: as §7, §8, §9
# SKMEL-28 = assay: Cell viability assay (PrestoBlue), 72h; conditions: Homo sapiens, SK-MEL-28, 72 h
# Protocol: as §7, §8, §9
# IGR37 = assay: Cell viability assay (PrestoBlue), 72h; conditions: Homo sapiens, IGR-37, 72 h
# Protocol: as §7, §8, §9
# 501mel^VemuR = assay: Cell viability assay (PrestoBlue), 72h; conditions: Homo sapiens
# Protocol: Cells were grown at 37°C in 5% CO2 (10% for Hermes 3A) and were regularly checked for mycoplasma contamination. MM patient-derived short-term melanoma cultures (MM011, MM074, MM117, MM029, MM047, MM099) were grown in HAM-F10 (Gibco, Invitrogen) supplemented with 10% Fetal Calf Serum (FCS), 25 mM HEPES, 5.2 mM GLUTAMAX and penicillin-streptomycin. Melanoma cell lines 501mel and SKmel28 were grown in RPMI w/o HEPES (Gibco, Invitrogen) supplemented with 10% FCS and gentamycin. Vemurafenib-resistant cells (501melVemuR and MM074VemuR) were additionally supplemented with 1.5 µM of vemurafenib. Melanoma IGR cell lines (IGR37 and IGR39) were grown in RPMI w/o HEPES (Gibco, Invitrogen) supplemented with 15% FCS and gentamycin.
# as §8, §9
compound,measurement,setting,value
COc1c(C)cc2c(c1O)[C@@H]1[C@@H]3[C@@H]4SC[C@]5(N[C@H](CO)Cc6c5oc5ccccc65)C(=O)OC[C@@H](c5c6c(c(C)c(OC(C)=O)c54)OCO6)N3[C@@H](O)[C@H](C2)N1C [Compound IA],pIC50,all melanoma cells,8.33 to 9.52
same,melanoma cell proliferation,melanoma cells,significant inhibition
same,RPB1 (RNA pol II elongation subunit) degradation,[1],pronounced
same,fraction of apoptotic cells (cleaved caspase-3),[2],significant increase
same,antitumor activity (tumor volumes) versus placebo-treated group,[3],statistically significant difference
same,overall survival,[3],significant increase
same,Median Tumour Volume,"[4]; days 0, 7 and 14, day 0",158.5 mm^3
same,Median Tumour Volume,"[4]; days 0, 7 and 14, day 3",208.3 mm^3
same,Median Tumour Volume,"[4]; days 0, 7 and 14, day 5",279.8 mm^3
same,Median Tumour Volume,"[4]; days 0, 7 and 14, day 7",328.5 mm^3
same,Median Tumour Volume,"[4]; days 0, 7 and 14, day 10",455.2 mm^3
same,Median Tumour Volume,"[4]; days 0, 7 and 14, day 12",614.1 mm^3
same,Median Tumour Volume,"[4]; days 0, 7 and 14, day 14",749.8 mm^3
same,Median Tumour Volume,"[4]; days 0, 7 and 14, day 17",913 mm^3
same,Median Tumour Volume,"[4]; days 0, 7 and 14, day 19","1,233 mm^3"
same,Median Tumour Volume,"[4]; days 0, 7 and 14, day 21","1,341.4 mm^3"
same,Median Tumour Volume,"[4]; days 0, 7 and 14, day 24","1,581.4 mm^3"
same,Median Tumour Volume,"[5]; days 0, 7 and 14, day 0",150 mm^3
same,Median Tumour Volume,"[5]; days 0, 7 and 14, day 2",236.5 mm^3
same,Median Tumour Volume,"[5]; days 0, 7 and 14, day 4",377.5 mm^3
same,Median Tumour Volume,"[5]; days 0, 7 and 14, day 7",608 mm^3
same,Median Tumour Volume,"[5]; days 0, 7 and 14, day 9",886.9 mm^3
same,Median Tumour Volume,"[5]; days 0, 7 and 14, day 14","1,163.9 mm^3"
same,Median Tumour Volume,"[5]; days 0, 7 and 14, day 16",936.5 mm^3
same,Median Tumour Volume,"[5]; days 0, 7 and 14, day 18","1,027.6 mm^3"
same,Median Tumour Volume,"[6]; days 0, 7 and 14, day 0",186.2 mm^3
same,Median Tumour Volume,"[6]; days 0, 7 and 14, day 2",196.3 mm^3
same,Median Tumour Volume,"[6]; days 0, 7 and 14, day 4",138.7 mm^3
same,Median Tumour Volume,"[6]; days 0, 7 and 14, day 7",106.8 mm^3
same,Median Tumour Volume,"[6]; days 0, 7 and 14, day 9",87.8 mm^3
same,Median Tumour Volume,"[6]; days 0, 7 and 14, day 11",56 mm^3
same,Median Tumour Volume,"[6]; days 0, 7 and 14, day 14",53.5 mm^3
same,Median Tumour Volume,"[6]; days 0, 7 and 14, day 16",54.7 mm^3
same,Median Tumour Volume,"[6]; days 0, 7 and 14, day 18",51.4 mm^3
same,Median Tumour Volume,"[6]; days 0, 7 and 14, day 21",71.2 mm^3
same,Median Tumour Volume,"[6]; days 0, 7 and 14, day 23",99.9 mm^3
same,Median Tumour Volume,"[6]; days 0, 7 and 14, day 25",132 mm^3
same,Median Tumour Volume,"[6]; days 0, 7 and 14, day 28",597.7 mm^3
same,Median Tumour Volume,"[6]; days 0, 7 and 14, day 30","1,158.4 mm^3"
same,Median Tumour Volume,"[6]; days 0, 7 and 14, day 32","1,098.3 mm^3"
same,Median Tumour Volume,"[6]; days 0, 7 and 14, day 35",968.8 mm^3
same,Median Tumour Volume,"[6]; days 0, 7 and 14, day 37","1,375.6 mm^3"
same,pIC50,MM011,8.84
same,pIC50,MM074,8.42
same,pIC50,MM117,8.94
same,pIC50,SKMEL-28,8.76
same,pIC50,IGR37,8.83
same,pIC50,501mel^VemuR,8.67
"COc1c(C)cc2c(c1O)[C@@H]1[C@@H]3[C@@H]4SC[C@]5(N[C@H](CO)Cc6c5[nH]c5ccccc65)C(=O)OC[C@@H](c5c6c(c(C)c(OC(C)=O)c54)OCO6)N3[C@@H](O)[C@H](C2)N1C [PM14, ecubectedin]",pIC50,all melanoma cells,8.33 to 9.52
same,melanoma cell proliferation,melanoma cells,significant inhibition
same,RPB1 (RNA pol II elongation subunit) degradation,[1],pronounced
same,fraction of apoptotic cells (cleaved caspase-3),[2],significant increase
same,antitumor activity (tumor volumes) versus placebo-treated group,[3],statistically significant difference
same,overall survival,[3],significant increase
same,Median Tumour Volume,"[4]; days 0, 7 and 14, day 0",158.8 mm^3
same,Median Tumour Volume,"[4]; days 0, 7 and 14, day 3",215.5 mm^3
same,Median Tumour Volume,"[4]; days 0, 7 and 14, day 5",252.3 mm^3
same,Median Tumour Volume,"[4]; days 0, 7 and 14, day 7",372.7 mm^3
same,Median Tumour Volume,"[4]; days 0, 7 and 14, day 10",503.6 mm^3
same,Median Tumour Volume,"[4]; days 0, 7 and 14, day 12",599.4 mm^3
same,Median Tumour Volume,"[4]; days 0, 7 and 14, day 14",797.2 mm^3
same,Median Tumour Volume,"[4]; days 0, 7 and 14, day 17",950 mm^3
same,Median Tumour Volume,"[4]; days 0, 7 and 14, day 19","1,113.5 mm^3"
same,Median Tumour Volume,"[4]; days 0, 7 and 14, day 21","1,309.8 mm^3"
same,Median Tumour Volume,"[4]; days 0, 7 and 14, day 24","1,530.7 mm^3"
same,Median Tumour Volume,"[5]; days 0, 7 and 14, day 0",150.4 mm^3
same,Median Tumour Volume,"[5]; days 0, 7 and 14, day 2",216.6 mm^3
same,Median Tumour Volume,"[5]; days 0, 7 and 14, day 4",326.3 mm^3
same,Median Tumour Volume,"[5]; days 0, 7 and 14, day 7",544.5 mm^3
same,Median Tumour Volume,"[5]; days 0, 7 and 14, day 9",704.9 mm^3
same,Median Tumour Volume,"[5]; days 0, 7 and 14, day 11",821.6 mm^3
same,Median Tumour Volume,"[5]; days 0, 7 and 14, day 14","1,127.4 mm^3"
same,Median Tumour Volume,"[5]; days 0, 7 and 14, day 16","1,351.7 mm^3"
same,Median Tumour Volume,"[5]; days 0, 7 and 14, day 18","1,594 mm^3"
same,Median Tumour Volume,"[6]; days 0, 7 and 14, day 0",185 mm^3
same,Median Tumour Volume,"[6]; days 0, 7 and 14, day 2",173.7 mm^3
same,Median Tumour Volume,"[6]; days 0, 7 and 14, day 4",103.2 mm^3
same,Median Tumour Volume,"[6]; days 0, 7 and 14, day 7",73.8 mm^3
same,Median Tumour Volume,"[6]; days 0, 7 and 14, day 9",68.5 mm^3
same,Median Tumour Volume,"[6]; days 0, 7 and 14, day 11",51.2 mm^3
same,Median Tumour Volume,"[6]; days 0, 7 and 14, day 14",37.5 mm^3
same,Median Tumour Volume,"[6]; days 0, 7 and 14, day 16",40.8 mm^3
same,Median Tumour Volume,"[6]; days 0, 7 and 14, day 18",35.3 mm^3
same,Median Tumour Volume,"[6]; days 0, 7 and 14, day 21",43.5 mm^3
same,Median Tumour Volume,"[6]; days 0, 7 and 14, day 23",55.5 mm^3
same,Median Tumour Volume,"[6]; days 0, 7 and 14, day 25",68.5 mm^3
same,Median Tumour Volume,"[6]; days 0, 7 and 14, day 28",233.4 mm^3
same,Median Tumour Volume,"[6]; days 0, 7 and 14, day 30",547.3 mm^3
same,Median Tumour Volume,"[6]; days 0, 7 and 14, day 32","1,044 mm^3"
same,Median Tumour Volume,"[6]; days 0, 7 and 14, day 35","1,565 mm^3"
same,Median Tumour Volume,"[6]; days 0, 7 and 14, day 37","1,610.4 mm^3"
same,pIC50,MM011,8.97
same,pIC50,MM074,8.94
same,pIC50,MM117,9.14
same,pIC50,SKMEL-28,8.88
same,pIC50,IGR37,8.98
same,pIC50,501mel^VemuR,8.98
